Activity calls are given as the source filed them. The rule behind the calls is not given here.
Tests used:
[1] = target: T1, Tyrosine-protein phosphatase non-receptor type 22 (Homo sapiens, UniProt Q9Y2R2); experiment: Inhibition of LYP (unknown origin)
T1 sequence (Q9Y2R2 whole entry): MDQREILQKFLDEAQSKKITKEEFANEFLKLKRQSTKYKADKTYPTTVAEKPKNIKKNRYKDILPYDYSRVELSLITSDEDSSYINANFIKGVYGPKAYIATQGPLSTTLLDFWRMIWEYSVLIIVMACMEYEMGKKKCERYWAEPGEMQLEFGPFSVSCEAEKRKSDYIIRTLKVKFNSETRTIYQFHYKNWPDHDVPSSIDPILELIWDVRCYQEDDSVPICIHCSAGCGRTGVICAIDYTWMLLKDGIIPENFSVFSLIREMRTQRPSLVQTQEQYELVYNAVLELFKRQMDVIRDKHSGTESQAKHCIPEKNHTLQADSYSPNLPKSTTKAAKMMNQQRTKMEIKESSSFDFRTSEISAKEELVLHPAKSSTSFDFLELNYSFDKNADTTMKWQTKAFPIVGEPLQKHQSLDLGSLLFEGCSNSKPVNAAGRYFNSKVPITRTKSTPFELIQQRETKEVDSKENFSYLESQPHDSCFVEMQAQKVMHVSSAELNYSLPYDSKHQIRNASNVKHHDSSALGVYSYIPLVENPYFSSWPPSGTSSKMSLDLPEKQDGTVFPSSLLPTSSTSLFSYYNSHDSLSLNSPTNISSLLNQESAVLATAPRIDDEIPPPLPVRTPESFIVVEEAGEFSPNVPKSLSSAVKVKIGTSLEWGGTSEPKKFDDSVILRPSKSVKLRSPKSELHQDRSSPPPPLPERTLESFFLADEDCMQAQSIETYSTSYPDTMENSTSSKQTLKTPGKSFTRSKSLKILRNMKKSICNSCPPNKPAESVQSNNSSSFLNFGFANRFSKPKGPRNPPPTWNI

[2] = target: T2, Receptor-type tyrosine-protein phosphatase O (Homo sapiens, UniProt Q16827); experiment: Inhibition of PTPRO (unknown origin)
T2 sequence (Q16827 whole entry): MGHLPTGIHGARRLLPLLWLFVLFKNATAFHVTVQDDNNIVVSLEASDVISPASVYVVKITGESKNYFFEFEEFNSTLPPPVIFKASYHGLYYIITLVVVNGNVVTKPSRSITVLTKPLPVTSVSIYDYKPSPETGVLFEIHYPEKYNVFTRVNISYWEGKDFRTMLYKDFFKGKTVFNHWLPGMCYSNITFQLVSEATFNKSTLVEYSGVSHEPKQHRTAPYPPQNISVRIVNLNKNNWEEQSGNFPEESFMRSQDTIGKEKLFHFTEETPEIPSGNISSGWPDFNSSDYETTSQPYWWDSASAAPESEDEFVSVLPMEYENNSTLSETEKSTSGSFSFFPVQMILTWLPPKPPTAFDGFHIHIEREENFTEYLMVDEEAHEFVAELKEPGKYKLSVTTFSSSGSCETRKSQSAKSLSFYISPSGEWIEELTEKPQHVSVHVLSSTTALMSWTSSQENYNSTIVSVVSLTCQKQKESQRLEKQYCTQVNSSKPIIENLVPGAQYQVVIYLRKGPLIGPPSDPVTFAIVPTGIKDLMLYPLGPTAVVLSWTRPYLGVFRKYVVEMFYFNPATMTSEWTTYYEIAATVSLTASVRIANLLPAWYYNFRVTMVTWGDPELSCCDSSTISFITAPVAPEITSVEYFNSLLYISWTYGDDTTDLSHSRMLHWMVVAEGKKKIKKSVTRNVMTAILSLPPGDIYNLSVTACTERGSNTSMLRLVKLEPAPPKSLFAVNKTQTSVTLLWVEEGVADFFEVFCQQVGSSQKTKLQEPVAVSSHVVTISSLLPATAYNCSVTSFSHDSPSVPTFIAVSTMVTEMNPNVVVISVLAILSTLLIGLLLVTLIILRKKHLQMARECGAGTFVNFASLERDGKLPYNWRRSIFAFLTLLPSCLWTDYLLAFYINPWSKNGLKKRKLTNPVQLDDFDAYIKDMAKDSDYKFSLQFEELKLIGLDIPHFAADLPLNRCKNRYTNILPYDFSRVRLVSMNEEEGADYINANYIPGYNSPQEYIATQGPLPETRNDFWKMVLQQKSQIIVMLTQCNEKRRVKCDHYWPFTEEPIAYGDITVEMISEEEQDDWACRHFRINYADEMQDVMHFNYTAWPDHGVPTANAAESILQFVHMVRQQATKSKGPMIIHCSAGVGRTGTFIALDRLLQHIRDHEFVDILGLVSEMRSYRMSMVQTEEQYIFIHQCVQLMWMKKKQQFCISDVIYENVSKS

[3] = target: T3, Tyrosine-protein phosphatase non-receptor type 1 (Homo sapiens, UniProt P18031); experiment: Inhibition of PTP1B (unknown origin)
T3 sequence (P18031 whole entry): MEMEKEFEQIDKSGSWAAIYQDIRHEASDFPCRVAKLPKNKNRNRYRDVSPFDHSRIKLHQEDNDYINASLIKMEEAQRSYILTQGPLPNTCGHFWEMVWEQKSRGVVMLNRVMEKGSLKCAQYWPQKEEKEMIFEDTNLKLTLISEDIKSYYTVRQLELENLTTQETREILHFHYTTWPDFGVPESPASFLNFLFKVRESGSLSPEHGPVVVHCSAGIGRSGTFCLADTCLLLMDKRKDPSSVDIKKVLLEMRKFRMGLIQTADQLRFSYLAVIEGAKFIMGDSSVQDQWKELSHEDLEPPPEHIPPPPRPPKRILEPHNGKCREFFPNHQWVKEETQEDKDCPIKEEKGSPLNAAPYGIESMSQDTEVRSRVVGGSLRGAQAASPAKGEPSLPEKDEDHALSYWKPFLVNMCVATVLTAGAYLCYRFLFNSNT

[4] = target: T4, Tyrosine-protein phosphatase non-receptor type 2 (Homo sapiens, UniProt P17706); experiment: Inhibition of TCPTP (unknown origin)
T4 sequence (P17706 whole entry): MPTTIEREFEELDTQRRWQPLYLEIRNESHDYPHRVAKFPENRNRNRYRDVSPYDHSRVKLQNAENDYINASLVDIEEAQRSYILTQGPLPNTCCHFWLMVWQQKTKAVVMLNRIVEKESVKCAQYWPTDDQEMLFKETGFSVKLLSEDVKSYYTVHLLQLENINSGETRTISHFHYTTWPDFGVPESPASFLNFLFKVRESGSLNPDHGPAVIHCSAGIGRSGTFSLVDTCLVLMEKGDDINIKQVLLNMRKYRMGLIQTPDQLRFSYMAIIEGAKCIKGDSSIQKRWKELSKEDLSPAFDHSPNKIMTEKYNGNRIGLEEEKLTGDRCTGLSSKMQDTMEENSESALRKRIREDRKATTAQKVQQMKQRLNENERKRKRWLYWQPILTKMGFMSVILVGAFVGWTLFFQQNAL

HT-22 [5] = experiment: Cytotoxicity against mouse HT-22 cells assessed as effect on cell viability at 40 uM incubated for 48 hrs by CCK-8 assay; assay type: toxicity, cell-based; details: ht-22, 48 h
PC-12 = experiment: Cytotoxicity against PC-12 cells at 40 uM incubated for 48 hrs by CCK-8 assay; assay type: toxicity, cell-based; details: rat, pc-12, 48 h
HT-22 [6] = experiment: Neuroprotective activity against glutamate-induced cytotoxicity in mouse HT-22 cells at 10 to 20 uM assessed as cell death measured after 14 hrs by CCK8 assay; assay type: functional, cell-based; details: dose 10-20 µM
HT-22 [7] = experiment: Induction of apoptosis in glutamate-induced mouse HT-22 cells assessed as reduction in C-caspase 3 activation at 10 to 20 uM incubated for 12 hrs by Western blot analysis; assay type: functional, cell-based; details: dose 10-20 µM
HT-22 [8] = experiment: Neuroprotective activity against glutamate-induced cytotoxicity in mouse HT-22 cells at 10 to 20 uM assessed as increase in cell viability measured after 14 hrs by CCK8 assay; assay type: functional, cell-based; details: dose 10-20 µM
HT-22 [9] = experiment: Effect on STEP expression in mouse HT-22 cells by Western blot analysis; assay type: functional, cell-based
HT-22 [10] = experiment: […] glutamate-induced ROS accumulation in mouse HT-22 cells assessed as reduction in fluorescent intensity at 10 to 20 uM incubated for 14 hrs by DCFH-DA staining based inverted fluorescence microscopic analysis; assay type: functional, cell-based; details: dose 10-20 µM
HT-22 [11] = experiment: Induction of apoptosis in glutamate-induced mouse HT-22 cells assessed as viable cells at 10 uM incubated for 12 hrs by Annexin V/PI staining based flow cytometry analysis (reference value: 92.6%); assay type: functional; details: read-out: Activity
HT-22 [12] = experiment: Induction of apoptosis in glutamate-induced mouse HT-22 cells assessed as early apoptotic cells at 10 uM incubated for 12 hrs by Annexin V/PI staining based flow cytometry analysis (reference value: 1.23 %); assay type: functional
HT-22 [13] = experiment: Induction of apoptosis in glutamate-induced mouse HT-22 cells assessed as late apoptotic cells at 10 uM incubated for 12 hrs by Annexin V/PI staining based flow cytometry analysis (reference value: 2.55 %); assay type: functional
HT-22 [14] = experiment: Induction of apoptosis in glutamate-induced mouse HT-22 cells assessed as necrotic cells at 10 uM incubated for 12 hrs by Annexin V/PI staining based flow cytometry analysis (reference value: 3.63 %); assay type: functional
HT-22 [15] = experiment: Induction of apoptosis in glutamate-induced mouse HT-22 cells assessed as viable cells at 20 uM incubated for 12 hrs by Annexin V/PI staining based flow cytometry analysis (reference value: 92.6%); assay type: functional; details: read-out: Activity
HT-22 [16] = experiment: Induction of apoptosis in glutamate-induced mouse HT-22 cells assessed as early apoptotic cells at 20 uM incubated for 12 hrs by Annexin V/PI staining based flow cytometry analysis (reference value: 1.23 %); assay type: functional
HT-22 [17] = experiment: Induction of apoptosis in glutamate-induced mouse HT-22 cells assessed as late apoptotic cells at 20 uM incubated for 12 hrs by Annexin V/PI staining based flow cytometry analysis (reference value: 2.55 %); assay type: functional
HT-22 [18] = experiment: Induction of apoptosis in glutamate-induced mouse HT-22 cells assessed as necrotic cells at 20 uM incubated for 12 hrs by Annexin V/PI staining based flow cytometry analysis (reference value: 3.63 %); assay type: functional
HT-22 [19] = experiment: Anti-apoptotic activity in glutamate-induced mouse HT-22 cells assessed as increase in BCL-2 expression at 10 to 20 uM incubated for 12 hrs by Western blot analysis; assay type: functional, cell-based; details: dose 10-20 µM
HT-22 [20] = experiment: Anti-apoptotic activity in glutamate-induced mouse HT-22 cells assessed as decrease in BAX expression at 10 to 20 uM incubated for 12 hrs by Western blot analysis; assay type: functional, cell-based; details: dose 10-20 µM
HT-22 [21] = experiment: Anti-apoptotic activity in glutamate-induced mouse HT-22 cells assessed as decrease in BAX expression at 10 to 20 uM incubated for 12 hrs by immunofluorescence analysis; assay type: functional, cell-based; details: dose 10-20 µM
HT-22 [22] = experiment: Anti-apoptotic activity in glutamate-induced mouse HT-22 cells assessed as increase in BCL-2 expression at 10 to 20 uM incubated for 12 hrs by immunofluorescence analysis; assay type: functional, cell-based; details: dose 10-20 µM
HT-22 [23] = experiment: Induction of apoptosis in glutamate-induced mouse HT-22 cells assessed as reduction in C-caspase 3 activation at 10 to 20 uM incubated for 12 hrs by immunofluorescence analysis; assay type: functional, cell-based; details: dose 10-20 µM
Cortical neurone [24] = experiment: Neuroprotective activity against OGD/R induced C57BL/6J mouse Primary cortical neuron assessed as alleviation in neuronal apoptosis at 10 to 20 uM incubated for 12 hrs by TUNEL staining based analysis; assay type: functional, cell-based; details: dose 10-20 µM
Cortical neurone [25] = experiment: Neuroprotective activity against OGD/R induced C57BL/6J mouse Primary cortical neuron assessed as alleviation in neuronal apoptosis at 10 to 20 uM incubated for 12 hrs by immunofluorescence analysis; assay type: functional, cell-based; details: dose 10-20 µM
Cortical neurone [26] = experiment: Neuroprotective activity against OGD/R induced C57BL/6J mouse Primary cortical neuron assessed as increase in BCL-2 expression at 10 to 20 uM incubated for 12 hrs by immunofluorescence analysis; assay type: functional, cell-based; details: dose 10-20 µM
Cortical neurone [27] = experiment: Neuroprotective activity against OGD/R induced C57BL/6J mouse Primary cortical neuron assessed as decrease in BAX expression at 10 to 20 uM incubated for 12 hrs by immunofluorescence analysis; assay type: functional, cell-based; details: dose 10-20 µM
Cortical neurone [28] = experiment: Neuroprotective activity against OGD/R induced C57BL/6J mouse Primary cortical neuron assessed as decrease in C-caspase3 expression at 10 to 20 uM incubated for 12 hrs by immunofluorescence analysis; assay type: functional, cell-based; details: dose 10-20 µM

IC50 [1]: 11.2 µM | IC50 [2]: 14.3 µM | IC50 [3]: 9.01 µM | IC50 [4]: 44 µM
Structure (SMILES): O=C(O)c1ccc(-c2ccc(/C=C3\C(=O)c4cccc([N+](=O)[O-])c4C3=O)o2)c(Cl)c1
Activity (HT-22 [5]): Non-toxic | Activity (PC-12): Non-toxic | Activity (HT-22 [6]): Active | Activity (HT-22 [7]): Active | Activity (HT-22 [8]): Active | Activity (HT-22 [9]): Active | Activity (HT-22 [10]): Active | viability at 10 µM (HT-22 [11]): 91.9% | Activity (HT-22 [12]): 3.15% | Activity (HT-22 [13]): 4.02% | Activity (HT-22 [14]): 0.92% | viability at 20 µM (HT-22 [15]): 93.2% | Activity (HT-22 [16]): 2.02% | Activity (HT-22 [17]): 3.57% | Activity (HT-22 [18]): 1.26% | Activity (HT-22 [19]): Active | Activity (HT-22 [20]): Active | Activity (HT-22 [21]): Active | Activity (HT-22 [22]): Active | Activity (HT-22 [23]): Active | Activity (Cortical neurone [24]): Active | Activity (Cortical neurone [25]): Active | Activity (Cortical neurone [26]): Active | Activity (Cortical neurone [27]): Active | Activity (Cortical neurone [28]): Active

Source: ChEMBL document CHEMBL6078701, “Design and synthesis of novel benzoic acid derivatives as striatal-enriched protein tyrosine phosphatase (STEP) inhibitors with neuroprotective properties” (Eur J Med Chem, 2025)
